Values of other authors, collected in patent US20260240770A1, “LIQUID FORMULATION COMPRISING TRILOSTANE” (NORBROOK LABORATORIES LIMITED, priority 2023, published 2026).

Details: low water solubility and high membrane permeability

BCS class: Class Two
SMILES: C[C@]12CC[C@H]3[C@@H](CC[C@@]45O[C@@H]4C(O)=C(C#N)C[C@]35C)[C@@H]1CC[C@@H]2O [Trilostane, 4α,5-epoxy-3,17β-dihydroxy-5α-androst-2-ene-2-carbonitrile]
